{"source": "patent US6969609B1", "about": "(priority 1998, dated 2005)", "tested_on": "CAP-M8-specific CD8^+ effector T-cell line", "assay_type": "cell-based, murine", "data": [{"substance": "TNF-α", "values": [{"measurement": "increase in peptide-specific proliferation over unmanipulated DC", "value": 28, "unit": "%"}]}]}
